Source: paper PMC9804871, “Effect of Opicapone on Levodopa Pharmacokinetics in Patients with Fluctuating Parkinson's Disease” (Movement Disorders, 2022)
Entries after “also recorded” stand apart in the source; their conditions may differ.

Legend:
[1] = 12-hour levodopa plasma pharmacokinetics; assay type: in vivo, human (patients with PD)
Method: The study design is illustrated in Figure 1.
Pharmacokinetic evaluation occurred over 12 hours with sampling every 30 minutes, except for the last sample following each LD dose in the opicapone plus four LD intake regimen, which was sampled at 1 hour. The main pharmacokinetics parameters assessed included maximum observed plasma concentration (Cmax), time to achieve peak plasma levels (tmax), minimum observed plasma concentration (Cmin), plasma elimination half‐life (t1/2), area under the curve (AUC), and fluctuation index (FI; as an expression of peak‐to‐trough fluctuation, Cmax, and Cmin, relative to average concentration [Cavg]). The pharmacokinetics of the LD metabolite 3‐O‐methyldopa (3‐OMD) was also evaluated.
Descriptive statistics were used to summarize the pharmacokinetics parameters for LD and 3‐OMD for each of the three regimens. […] No formal comparison was performed between opicapone regimens.

[2] = opicapone pivotal trials; average; cited from earlier work
[3] = opicapone 50 mg added to LD/CD 400/100 mg (both regimens) vs LD/CD 500/125 mg without opicapone

Structure (SMILES): Cc1c(Cl)c(C)[n+]([O-])c(Cl)c1-c1noc(-c2cc(O)c(O)c([N+](=O)[O-])c2)n1 [opicapone]
- effect on LD minimal (trough) concentrations (Cmin) [1, 3]: at least doubled; also recorded: twofold increase
- effect on LD plasma half-life (t1/2) [1, 3]: at least doubled
- impact on time to reach (tmax) maximum LD concentrations ([1]; opicapone 50 mg added to either LD/CD 400/100 mg regimen): no impact
- impact on maximal LD concentrations (Cmax) ([1]; opicapone 50 mg added to either LD/CD 400/100 mg regimen vs five-intake LD/CD 500/125 mg without opicapone): no significant impact
- reduction of off time relative to placebo [2]: 1 h
